# Measured values reported in ChEMBL document CHEMBL1127967, “Argatroban analogs: Synthesis, thrombin inhibitory activity and cell permeability of aminoheterocyclic guanidine surrogates” (Bioorg Med Chem Lett, 1994).
# Legend:
# [1] = pKa value of the compound; format: physicochemical
# [2] = test system: Caco-2; test: compound was evaluated for their ability to cross a Caco-2-monolayer; format: functional, cell-based; settings: Homo sapiens
# [3] = biological target: Prothrombin (Homo sapiens, UniProt P00734); test: Inhibitory activity against thrombin was measured by its ability to cleave the synthetic substrate S-2238(D-Phe-Pip-Arg-pNA); settings: read-out: I50
pKa [1],IC50 [3] [µM],SMILES,Permeability coefficient [2] [×10⁻⁶ cm/s]
5.2,2.3,COc1ccc2ccc(S(=O)(=O)N[C@@H](CCCNc3cccnn3)C(=O)N3CCC(C)CC3)cc2c1,12.1
3.5,> 115,CC1CCN(C(=O)[C@H](CCCNc2ncccn2)NS(=O)(=O)c2ccc3ccccc3c2)CC1,13.8
14,,"CC1CNc2c(cccc2S(=O)(=O)NC(CCCNC(=N)N)C(=O)N2CC[C@@H](C)C[C@@H]2C(=O)O)C1 (single isomer, unassigned) [ARGATROBAN]",0.3
14,2.5,CC1CCN(C(=O)[C@H](CCCN=C(N)N)NS(=O)(=O)c2ccc3ccccc3c2)CC1,0.4
6.9,5.5,CC1CCN(C(=O)[C@H](CCCNc2ccccn2)NS(=O)(=O)c2ccc3ccccc3c2)CC1,
3.1,> 40,CC1CCN(C(=O)[C@H](CCCNc2cnccn2)NS(=O)(=O)c2ccc3ccccc3c2)CC1,14.2
5.2,24,CC1CCN(C(=O)[C@H](CCCNc2cccnn2)NS(=O)(=O)c2ccc3ccccc3c2)CC1,12.3
6.9,0.47,COc1ccc2ccc(S(=O)(=O)N[C@@H](CCCNc3ccccn3)C(=O)N3CCC(C)CC3)cc2c1,3
